In patent publication US7521192B2, “EDG: modulators of lymphocyte activation and migration” (Rigel Pharmaceuticals, Inc., priority 2001, dated 2009):
“Also recorded” adds a separate entry of the source.

How the values were obtained:
[1] = system: primary T cell; experiment: SPP-induced primary T cell migration; assay type: cell-based; conditions: primary T cells
Description: (§1) “Lymphocyte migration” refers to migration of B and T lymphocytes to and from primary and secondary lymphoid organs (e.g., bone marrow, thymus, lymph nodes, spleen, Peyer's patch, and tonsils), the periphery, and non-lymphoid tissues via the blood stream, lymphatic vessels, and by penetration of capillary walls (see, e.g., Paul, Immunology (3rd ed., 1993) (Chapters 4 and 6)). […] SPP and LPA are present in serum and are produced by a number of cells, including platelets and fibroblasts. Ligand-induced lymphocyte migration can be measured using the assay described in FIG. 33A, in which lymphocytes migrate toward the ligand from an upper to a lower chamber. The sphingolipid analog compound 2-amino-2(2-[4-octylphenyl]ethyl)-1,3-propanediol hydrochloride and analogs thereof inhibit such migration. The C-terminus of EDG-1 appears to be involved in migration. Such domains (e.g., the cytoplasmic tail of EDG-1) can be used in high throughput binding assays for compounds that modulate lymphocyte migration.
(§2) As described above, in one embodiment, lymphocyte activation is measured by contacting T cells comprising an EDG target with a potential modulator and activating the cells with an anti-TCR antibody. […] In another embodiment, lymphocyte migration is measured by observing T cell migration from an upper to a lower chamber containing an EDG ligand such as SPP.

[2] = target: T1, EDG-1 (Homo sapiens, UniProt P21453); experiment: EDG-1 wild-type induced CD69 inhibition in Jurkat cells; assay type: cell-based; conditions: Jurkat cells expressing EDG-1 wild-type
T1 sequence (P21453 whole entry): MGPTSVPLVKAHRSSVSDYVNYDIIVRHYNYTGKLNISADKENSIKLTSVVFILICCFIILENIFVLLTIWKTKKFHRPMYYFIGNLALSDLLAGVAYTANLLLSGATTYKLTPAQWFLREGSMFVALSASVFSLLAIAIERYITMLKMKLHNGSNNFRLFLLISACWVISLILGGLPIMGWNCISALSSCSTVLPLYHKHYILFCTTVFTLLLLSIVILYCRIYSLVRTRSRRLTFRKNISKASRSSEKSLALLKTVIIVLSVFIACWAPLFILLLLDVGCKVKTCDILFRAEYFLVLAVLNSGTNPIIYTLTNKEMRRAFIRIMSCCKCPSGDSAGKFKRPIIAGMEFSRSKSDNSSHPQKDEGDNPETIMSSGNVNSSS
Experimental: Stimulation: For CD69 upregulation experiments, tTA-Jurkat cells were split to 2.5×10^5 cells/ml 24 hours prior to stimulation. Cells were spun and resuspended at 5×10^5 cells/ml in fresh complete RPMI medium in the presence of 100 ng/ml [MUT] (anti-Jurkat clonotypic TCR) or 5 ng/ml PMA hybridoma supernatant for 20-26 hours at 37° C., and then assayed for surface CD69 expression. Cell surface marker analysis: Jurkat-N cells were stained with an APC-conjugated mouse monoclonal anti-human CD69 antibody (Caltag) at 4° C. for 20 minutes and analyzed using a Facscalibur instrument (Becton Dickinson) with Cellquest software. Cell sorts were performed on a MoFlo (Cytomation).

[3] = system: Jurkat cells; experiment: SPP-induced migration assay in Jurkat cells; assay type: cell-based, human
Description: as §1, §2

[4] = target: T1, EDG-1; experiment: EDG-1 wild-type enhanced SPP-induced migration in Jurkat cells; assay type: cell-based; conditions: Jurkat cells expressing EDG-1 wild-type
Description: (§3) “Lymphocyte migration” refers to migration of B and T lymphocytes to and from primary and secondary lymphoid organs (e.g., bone marrow, thymus, lymph nodes, spleen, Peyer's patch, and tonsils), the periphery, and non-lymphoid tissues via the blood stream, lymphatic vessels, and by penetration of capillary walls (see, e.g., Paul, Immunology (3rd ed., 1993) (Chapters 4 and 6)). […] SPP and LPA are present in serum and are produced by a number of cells, including platelets and fibroblasts. Ligand-induced lymphocyte migration can be measured using the assay described in FIG. 33A, in which lymphocytes migrate toward the ligand from an upper to a lower chamber.
(§4) As described above, in one embodiment, lymphocyte activation is measured by contacting T cells comprising an EDG target with a potential modulator and activating the cells with an anti-TCR antibody. Modulation of T cell activation is identified by screening for cell surface marker expression, e.g., CD69 expression levels, using fluorescent antibodies and FACS sorting. In another embodiment, lymphocyte migration is measured by observing T cell migration from an upper to a lower chamber containing an EDG ligand such as SPP.

[5] = target: T1, EDG-1; experiment: EDG-1 mediated SPP-induced lymphocyte migration; assay type: cell-based; conditions: lymphocytes migrating toward ligand from upper to lower chamber
Description: as §3, §4

[6] = system: BJAB cells; experiment: anti-BCR-induced CD69 upregulation in naive BJAB cells; assay type: cell-based
[7] = system: Jurkat cells; experiment: anti-TCR-induced CD69 upregulation in naive Jurkat cells; assay type: cell-based, human
Experimental: Stimulation: For CD69 upregulation experiments, tTA-Jurkat cells were split to 2.5×10^5 cells/ml 24 hours prior to stimulation. Cells were spun and resuspended at 5×10^5 cells/ml in fresh complete RPMI medium in the presence of 100 ng/ml […] (anti-Jurkat clonotypic TCR) or 5 ng/ml PMA hybridoma supernatant for 20-26 hours at 37° C., and then assayed for surface CD69 expression. Cell surface marker analysis: Jurkat-N cells were stained with an APC-conjugated mouse monoclonal anti-human CD69 antibody (Caltag) at 4° C. for 20 minutes and analyzed using a Facscalibur instrument (Becton Dickinson) with Cellquest software. Cell sorts were performed on a MoFlo (Cytomation).

[8] = target: T1, EDG-1; experiment: anti-BCR induced CD69 upregulation in BJAB cells expressing TIG-EDG-1 constructs; assay type: cell-based
[9] = system: EDG-1; experiment: as above; assay type: cell-based

SMILES | effect on SPP-induced primary T cell migration [1] | effect on EDG-1 wild-type induced CD69 inhibition [2] | effect on SPP-induced migration ([3]; Jurkat cells) | effect on EDG-1 wild-type enhanced SPP-induced migration [4] | effect on EDG-1 mediated SPP-induced (ligand-induced) lymphocyte migration ([5]; listed as 2-amino-2(2-[4-octylphenyl]ethyl)-1,3-propanediol hydrochloride) | effect on EDG-1 mediated SPP-induced (ligand-induced) lymphocyte migration ([5]; hydrochloride) | effect on anti-BCR-induced CD69 upregulation ([6]; in the presence of CS-FBS) | effect on anti-BCR-induced CD69 upregulation ([6]; regular serum) | effect on anti-TCR-induced CD69 upregulation ([7]; in the presence of CS-FBS) | effect on anti-TCR-induced CD69 upregulation ([7]; regular serum) | migration of Jurkat cells ([3]; Jurkat cells migrating toward ligand) | effect on wild-type EDG-1 inhibition of anti-BCR induced CD69 upregulation ([8]; BJAB cells expressing wild-type EDG-1) | dose dependence of wild-type EDG-1 inhibition of anti-BCR induced CD69 upregulation ([8]; cells overexpressing wild-type EDG-1, SPP added) | effect on anti-BCR induced CD69 upregulation ([9]; BJAB cells expressing TIG vector) | effect on the inhibition of EDG-1 mediated anti-BCR induced CD69 upregulation ([9]; BJAB cells, FIGS. 29 and 30)
CCCCCCCCc1ccc(CCC(N)(CO)CO)cc1.Cl [FTY720, 2-amino-2(2-[4-octylphenyl]ethyl)-1,3-propanediol hydrochloride] | inhibits | no effect | no effect | inhibits | inhibit | blocked | – | – | – | – | – | – | – | – | –
CCCCCCCCCCCCC/C=C/[C@@H](O)[C@@H](N)COP(=O)(O)O [SPP, sphingosine-1-phosphate] | – | – | – | – | – | – | no effect | no effect | no effect | no effect | induced migration | potentiates | dose-dependent manner; also recorded: dose dependent manner | no effect | no effect
